Test results taken from ChEMBL document CHEMBL4428076 (J Med Chem, 2016).
Activity calls are given as the source filed them. The rule behind the calls is not given here.

Columns and labels:
[1] = molecular target: Mu-type opioid receptor (Mus musculus) (UniProt P42866); assay: Agonist activity at mouse mu opioid receptor-1 expressed in CHO cell membranes assessed as [35S]GTPgammaS binding incubated for 60 mins by scintillation spectroscopic analysis relative to DAMGO; format: functional
[2] = molecular target: T1, Mu-type opioid receptor (Homo sapiens, UniProt P35372); assay: Activation of mu opioid receptor-1 (unknown origin) expressed in CHO cells assessed as beta-arrestin-2 recruitment at 10 uM after 90 mins by beta-galactosidase complementation assay; format: cell-based; details: 1.5 h
[3] = test system: Mus musculus; assay: Antinociceptive activity in sc dosed CD-1 mouse assessed as increase in reaction time measured 15 mins post dose by radiant heat tail flick assay; format: functional; details: CD-1, sc, 0.25 h
[4] = molecular target: T2, Delta-type opioid receptor (Mus musculus, UniProt P32300); assay: Antagonist activity at mouse delta opioid receptor-1 expressed in CHO cell membranes assessed as inhibition of DPDPE-induced [35S]GTPgammaS binding incubated for 60 mins by scintillation spectroscopic analysis; format: functional
[5] = molecular target: T3, Mu-type opioid receptor (Mus musculus, UniProt P42866); assay: Displacement of [125I]-IBNtxA from mouse mu opioid receptor-1 expressed in CHO cell membranes incubated for 90 mins
[6] = molecular target: T4, Kappa-type opioid receptor (Mus musculus, UniProt P33534); assay: Displacement of [125I]-IBNtxA from mouse kappa opioid receptor-1 expressed in CHO cell membranes incubated for 90 mins
[7] = molecular target: T2, Delta-type opioid receptor; assay: Displacement of [125I]-IBNtxA from mouse delta opioid receptor-1 expressed in CHO cell membranes incubated for 90 mins
[8] = molecular target: T3, Mu-type opioid receptor; assay: Agonist activity at mouse mu opioid receptor-1 expressed in CHO cell membranes assessed as [35S]GTPgammaS binding incubated for 60 mins by scintillation spectroscopic analysis; format: functional
[9] = molecular target: T4, Kappa-type opioid receptor; assay: Antagonist activity at mouse kappa opioid receptor-1 expressed in CHO cell membranes assessed as inhibition of U50,488H-induced [35S]GTPgammaS binding incubated for 60 mins by scintillation spectroscopic analysis; format: functional
[10] = molecular target: T2, Delta-type opioid receptor; assay: Agonist activity at mouse delta opioid receptor-1 expressed in CHO cell membranes assessed as [35S]GTPgammaS binding incubated for 60 mins by scintillation spectroscopic analysis; format: functional
[11] = molecular target: Delta-type opioid receptor (Mus musculus) (UniProt P32300); assay: Agonist activity at mouse delta opioid receptor-1 expressed in CHO cell membranes assessed as [35S]GTPgammaS binding incubated for 60 mins by scintillation spectroscopic analysis relative to DPDPE; format: functional
[12] = test system: Mus musculus; assay: Antinociceptive activity in CD-1 mouse assessed as increase in reaction time at 10 ug, icv administered on day 6 after DOR1-exon3 antisense oligodeoxynucleotide injection on day 1, 3 and 5 by radiant heat tail flick assay; format: functional, organism-based
[13] = test system: Mus musculus; assay: Antinociceptive activity in CD-1 mouse assessed as increase in reaction time at 0.75 ug, icv administered on day 6 after MOR1-exon1 antisense oligodeoxynucleotide injection on day 1, 3 and 5 by radiant heat tail flick assay; format: functional, organism-based
[14] = test system: Mus musculus; assay: Antinociceptive activity in sc dosed CD-1 mouse assessed as increase in reaction time administered twice daily at dosing intervals of 12 hrs for 5 days by radiant heat tail flick assay; format: functional; details: CD-1, sc
[15] = species on record: Mus musculus; assay: animal or person; details: CD-1, sc, 0.5 h
Description: Antinociceptive activity in sc dosed CD-1 mouse assessed as increase in reaction time measured 30 mins post dose by radiant heat tail flick assay

[16] = species on record: Mus musculus; assay: animal or person; details: CD-1, sc, 0.5 h; remark: listed apart in the source
Description: Antinociceptive activity in sc dosed CD-1 mouse assessed as increase in latency latency to respond with hind paw lick or shake/flutter measured 30 mins post dose by hot plate test

[17] = molecular target: T1, Mu-type opioid receptor; assay: Inhibition of DAMGO-induced beta-arrestin-2 recruitment at mu opioid receptor-1 (unknown origin) expressed in CHO cells preincubated for 30 mins followed by DAMGO addition measured after 90 mins by beta-galactosidase complementation assay; format: cell-based

T3 sequence (P42866 whole entry): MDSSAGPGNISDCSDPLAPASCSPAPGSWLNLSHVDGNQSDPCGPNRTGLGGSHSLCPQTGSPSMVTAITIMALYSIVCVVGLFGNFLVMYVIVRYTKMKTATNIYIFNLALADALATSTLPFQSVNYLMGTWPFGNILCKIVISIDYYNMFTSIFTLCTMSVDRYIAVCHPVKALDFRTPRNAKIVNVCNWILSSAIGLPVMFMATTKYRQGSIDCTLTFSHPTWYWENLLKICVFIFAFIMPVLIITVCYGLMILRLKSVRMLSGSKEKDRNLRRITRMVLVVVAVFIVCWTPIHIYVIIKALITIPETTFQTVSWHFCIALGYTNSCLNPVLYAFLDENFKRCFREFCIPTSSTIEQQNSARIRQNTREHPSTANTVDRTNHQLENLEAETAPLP
Chain of Mu-type opioid receptor (Mus musculus) (P42866 whole entry): as above
T2 sequence (P32300 whole entry): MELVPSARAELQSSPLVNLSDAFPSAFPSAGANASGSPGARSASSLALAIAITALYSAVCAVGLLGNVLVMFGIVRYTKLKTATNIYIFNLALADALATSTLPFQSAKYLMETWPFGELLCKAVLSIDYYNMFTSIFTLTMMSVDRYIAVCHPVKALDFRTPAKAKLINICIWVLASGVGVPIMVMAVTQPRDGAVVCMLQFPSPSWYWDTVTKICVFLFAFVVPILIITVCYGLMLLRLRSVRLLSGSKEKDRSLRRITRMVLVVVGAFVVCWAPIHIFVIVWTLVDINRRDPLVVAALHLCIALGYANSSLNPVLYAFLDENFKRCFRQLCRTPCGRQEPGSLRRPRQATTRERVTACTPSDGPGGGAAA
T4 sequence (P33534 whole entry): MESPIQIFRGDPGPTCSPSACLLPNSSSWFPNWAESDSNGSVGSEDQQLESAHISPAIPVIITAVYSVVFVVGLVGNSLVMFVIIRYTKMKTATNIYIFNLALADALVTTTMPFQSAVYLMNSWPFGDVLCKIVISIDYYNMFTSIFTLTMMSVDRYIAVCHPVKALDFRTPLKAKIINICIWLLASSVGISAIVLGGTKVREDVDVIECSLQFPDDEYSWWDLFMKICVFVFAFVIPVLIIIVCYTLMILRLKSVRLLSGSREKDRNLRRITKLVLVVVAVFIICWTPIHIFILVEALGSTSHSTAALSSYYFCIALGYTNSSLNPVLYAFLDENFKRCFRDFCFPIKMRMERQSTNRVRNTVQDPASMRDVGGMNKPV
T1 sequence (P35372 whole entry): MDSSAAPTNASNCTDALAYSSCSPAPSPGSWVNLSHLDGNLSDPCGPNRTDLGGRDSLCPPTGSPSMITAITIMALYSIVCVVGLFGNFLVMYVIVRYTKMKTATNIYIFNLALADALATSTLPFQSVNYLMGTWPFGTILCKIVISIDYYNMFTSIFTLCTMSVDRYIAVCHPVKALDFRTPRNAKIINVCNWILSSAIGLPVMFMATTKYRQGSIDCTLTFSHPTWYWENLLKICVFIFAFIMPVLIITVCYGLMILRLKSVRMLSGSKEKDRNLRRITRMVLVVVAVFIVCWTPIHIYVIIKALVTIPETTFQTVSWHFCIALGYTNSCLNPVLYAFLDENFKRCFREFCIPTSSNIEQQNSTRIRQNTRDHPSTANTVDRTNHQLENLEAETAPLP
Chain of Delta-type opioid receptor (Mus musculus) (P32300 whole entry): as the sequence (P32300 whole entry) above

## CC[C@@H]1CN2CCc3c([nH]c4cccc(OC)c34)[C@@H]2C[C@@H]1/C(=C\OC)C(=O)OC
[1]
  Emax: 65%
[2]
  Activity: Not Active
[3]
  ED50: 166 mg/kg

## CC[C@@H]1CN2CC[C@]3(Nc4cccc(O)c4C3=O)[C@@H]2C[C@@H]1/C(=C\OC)C(=O)OC
[4]
  IC50: 293 nM
[5]
  Ki: 1.4 nM
[6]
  Ki: 170 nM
[7]
  Ki: 6.1 nM
[8]
  EC50: 2 nM
[1]
  Emax: 124%
[2]
  Activity: Not Active
[3]
  ED50: 0.18 mg/kg

## CC[C@@H]1CN2CC[C@]3(Nc4cccc(-c5ccccc5)c4C3=O)[C@@H]2C[C@@H]1/C(=C\OC)C(=O)OC
[5]
  Ki: 0.91 nM
[6]
  Ki: 51 nM
[7]
  Ki: 0.8 nM
[8]
  EC50: 1.4 nM
[1]
  Emax: 123%
[9]
  IC50: 171 nM
[10]
  EC50: 0.83 nM
[2]
  Activity: Not Active
[3]
  ED50: 1 mg/kg
[11]
  Emax: 89%

## CC[C@@H]1CN2CC[C@@]3(C(=O)c4c(OC)cccc4N3C)[C@@H]2C[C@@H]1/C(=C\OC)C(=O)OC
[5]
  Ki: 375 nM
[6]
  Ki: > 1000 nM
[7]
  Ki: > 1000 nM

## CC1(C)SSC(C)(C)[C@@H](NC(=O)[C@@H](N)Cc2ccc(O)cc2)C(=O)NCC(=O)N[C@@H](Cc2ccccc2)C(=O)N[C@H]1C(=O)O
[12]
  Activity: inactive

## CC[C@@H]1CN2CC[C@]3(Nc4cccc(-c5ccoc5)c4C3=O)[C@@H]2C[C@@H]1/C(=C\OC)C(=O)OC
[4]
  IC50: 39 nM
[5]
  Ki: 0.94 nM
[6]
  Ki: 39 nM
[7]
  Ki: 1.5 nM
[8]
  EC50: 1.5 nM
[1]
  Emax: 100%
[9]
  IC50: 202 nM
[2]
  Activity: Not Active
[3]
  ED50: 1.1 mg/kg

## CC[C@@H]1CN2CC[C@]3(Nc4cccc(OC(C)=O)c4C3=O)[C@@H]2C[C@@H]1/C(=C\OC)C(=O)OC
[5]
  Ki: 2.5 nM
[6]
  Ki: 31 nM
[7]
  Ki: 20 nM
[8]
  EC50: 3.9 nM
[1]
  Emax: 120%
[3]
  ED50: 0.38 mg/kg

## CN1CC[C@]23c4c5ccc(O)c4O[C@H]2[C@@H](O)C=C[C@H]3[C@H]1C5 [MORPHINE]
[13]
  Activity: inactive
[14]
  ED50: 12.1 mg/kg
[15]
  ED50: 2 to 2.5 mg/kg
[16]
  ED50: 1.7 mg/kg

## CC[C@@H]1CN2CC[C@@]3(C(=O)c4c(OC)cccc4N3Cc3ccccc3)[C@@H]2C[C@@H]1/C(=C\OC)C(=O)OC
[5]
  Ki: 249 nM
[6]
  Ki: 136 nM
[7]
  Ki: 258 nM

## C[C@@H](NC(=O)[C@@H](N)Cc1ccc(O)cc1)C(=O)NCC(=O)N(C)[C@@H](Cc1ccccc1)C(=O)NCCO [DAMGO]
[2]
  Activity: Active

## CC[C@@H]1CN2CC[C@]3(Nc4ccccc4C3=O)[C@@H]2C[C@@H]1/C(=C\OC)C(=O)OC
[4]
  IC50: 193 nM
[5]
  Ki: 0.46 nM
[6]
  Ki: 19 nM
[7]
  Ki: 2.9 nM
[8]
  EC50: 1.4 nM
[1]
  Emax: 116%
[9]
  IC50: 252 nM
[2]
  Activity: Not Active
[3]
  ED50: 0.24 mg/kg

## CC[C@@H]1CN2CC[C@]3(Nc4cccc(C#N)c4C3=O)[C@@H]2C[C@@H]1/C(=C\OC)C(=O)OC
[4]
  IC50: 73 nM
[5]
  Ki: 0.5 nM
[6]
  Ki: 47 nM
[7]
  Ki: 2.4 nM
[8]
  EC50: 0.7 nM
[1]
  Emax: 122%
[9]
  IC50: 721 nM
[2]
  Activity: Not Active
[3]
  ED50: 0.32 mg/kg

## CC[C@@H]1CN2CC[C@@]3(O)C(=Nc4cccc(OC)c43)[C@@H]2C[C@@H]1/C(=C\OC)C(=O)OC
[5]
  Ki: 37 nM
[8]
  EC50: 53 nM
[1]
  Emax: 77%
[9]
  IC50: 2520 nM
[2]
  Activity: Not Active
[17]
  inhibition: Dose-dependent effect
[3]
  ED50: 0.46 mg/kg
